{
  "source": "patent US20060167226A1",
  "about": "“Mutations of voltage-gated ion channnels that allow them to express a voltage-independent phenotype and an improved method to use the same” (Cardiome Pharma Corp., priority 2002, published 2006)",
  "target": "T1, Kv1.5m channels (Homo sapiens, UniProt P22460, P513D/R400Q/R403Q/R409Q)",
  "T1 construct": "The coding region of the human gene for Kv1.5 was subcloned into pYC2 (Invitrogen) as an approximately 2 kb HindIII-NotI fragment; expressed in transfected cells; host or cells: Saccharomyces cerevisiae trk1 trk2 strain WΔ3, plasmid pYC2 (GAL1 promoter) or a PGK promoter vector",
  "T1 sequence (P22460 whole entry R400Q/R403Q/R409Q/P513D, the tested form may be a part)": "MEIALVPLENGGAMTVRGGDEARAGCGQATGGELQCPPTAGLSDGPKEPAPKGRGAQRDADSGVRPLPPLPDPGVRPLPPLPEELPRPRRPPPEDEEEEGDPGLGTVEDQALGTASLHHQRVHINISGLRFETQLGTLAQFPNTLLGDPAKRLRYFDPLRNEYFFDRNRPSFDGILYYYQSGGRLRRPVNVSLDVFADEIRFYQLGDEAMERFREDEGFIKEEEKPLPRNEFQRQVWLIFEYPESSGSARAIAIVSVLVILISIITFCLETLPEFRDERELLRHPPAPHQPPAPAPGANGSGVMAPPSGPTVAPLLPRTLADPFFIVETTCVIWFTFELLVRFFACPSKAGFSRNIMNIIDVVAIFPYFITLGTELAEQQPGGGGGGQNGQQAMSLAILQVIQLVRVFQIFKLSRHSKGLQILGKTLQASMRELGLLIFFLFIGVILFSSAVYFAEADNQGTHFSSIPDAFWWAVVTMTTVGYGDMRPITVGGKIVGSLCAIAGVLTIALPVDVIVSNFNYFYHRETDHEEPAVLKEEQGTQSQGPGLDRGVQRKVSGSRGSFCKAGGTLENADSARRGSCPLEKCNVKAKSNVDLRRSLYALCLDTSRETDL",
  "assay": "Liquid culture growth assay of trk1 trk2 yeast (WΔ3) expressing Kv1.5m in low potassium media",
  "type": "cell-based",
  "conditions": "for OD600 (Batch A) / OD600 (Batch B): QPD WΔ3 transformants, liquid culture; for Block of growth of the trk1 trk2 strain expressing Kv1.5m on low potassium: low potassium media",
  "excerpt": "Expression of the cloned inserts is under the control of either the constitutively active PGK promoter or the inducible GAL1 promoter. The latter requires growth in/on media containing galactose as sole carbon source. The screening method involves adding the compound to be screened to the growth media of trk1 trk2 yeast expressing the modified potassium channel and determining whether the yeast's growth is inhibited. The tested compound may be incorporated in liquid or solid growth media or added ectopically to solid growth media.\nOur yeast strain, when expressing the mutant Kv1.5 channel, is capable of consistent growth on as little as 0.5 mM potassium. Very few pseudorevertants are capable of growth at this potassium concentration; the vast majority of liquid cultures of the parent strain show absolutely no growth even after more than 24 hours culture. When expressing the mutant Kv1.5 channel, growth is robust and can be blocked by known Kv1.5 channel blockers.\nDetailed Description of the Methods Required for a Liquid Culture Media Assay of Kv1.5:\nLow salt media was made according to Wickerham, L. J. (1951) (Taxonomy of Yeasts. United States Department of Agriculture Technical Bulletin No. 1029), except that the final potassium phosphate concentration was 0.5 mM.\n1. Streak out WΔ3 and Kv1.5m transformed WΔ3 (“Kv1.5m”) culture from frozen stock onto YPD+100 mM K+ and YNB+100 mM K+, ura-agar media plates, respectively, for fresh colonies.\n2. The day before doing the drug assay, use the fresh colonies to grow overnight cultures of WΔ3 in liquid YPD+100 mM K+ media, and grow “Kv1.5 m” in liquid YNB+100 mM K+, ura-media.\n3. Collect the overnight yeast cells and wash them in sterile distilled water. Resuspend WΔ3 cells in the same volume of LS+100 mM K++ uracil media, and resuspend “Kv1.5 m” cells in the same volume of LS+0.5 mM K+, ura-media. These are the seed cultures for the drug assay.\n4. In Falcon 2059 tubes, prepare various concentrations of drugs in LS+0.5 mM K+, ura-media or LS+100 mM K++ uracil media, and also set up solvent controls for each drug concentrations used. Here is an example:\nDrug X stock solution (10 mM) is dissoved in 0.5% Tween-20. Final concentrations that we test are 1 mM, 0.1 mM, and 0.01 mM.\nThen 250 micro liter of the seed culture of “Kv1.5m” from step 3 is inoculated into each tube.\n5. Measure the starting OD600 by taking out 0.1 ml of the sample from each tube and diluting […] for measuring. Grow cultures at […] shaker at 300 rpm.\n6. Get 0.1 ml of samples from each tube and measure their OD600 at 2 hr, 4 hr, 6 hr, 8 hr, and 24 hr.",
  "data": [
    {"smiles": "Nc1ccncc1", "note": "[Compound 4-AP, 4-aminopyridine]", "values": [
      {"measurement": "inhibition at 1000 µM", "setting": "1 mM 4-AP, both batches, read-out: reduction at OD600 (inhibition of yeast growth)", "value": 50, "unit": "%"},
      {"measurement": "OD600 (Batch A)", "setting": "LS + 0.5 mM K+ + 0.1 mM 4-AP", "value": 2.55},
      {"measurement": "OD600 (Batch B)", "setting": "LS + 0.5 mM K+ + 0.1 mM 4-AP", "value": 2.5},
      {"measurement": "OD600 (Batch A)", "setting": "LS + 0.5 mM K+ + 1 mM 4-AP", "value": 1.11},
      {"measurement": "OD600 (Batch B)", "setting": "LS + 0.5 mM K+ + 1 mM 4-AP", "value": 1.11},
      {"measurement": "Block of growth of the trk1 trk2 strain expressing Kv1.5m on low potassium", "value": "can block the Kv1.5m channels"},
      {"measurement": "Block of growth of the trk1 trk2 strain expressing Kv1.5m on low potassium", "setting": "listed as 4-aminopyridine", "value": "could be blocked"}
    ]}
  ]
}
